Experimental data from PubChem BioAssay (NCI).
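Test compounds were applied to cells in 96-well plates for 48 hours at 5 doses. Definition used: TGI = concentration required for complete inhibition of growth.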

Tests used:
Assay in all cases: NCI tumour cell line growth inhibition, 48 h
DU-145 prostate = system: DU-145 prostate
OVCAR-8 ovarian = system: OVCAR-8 ovarian
M14 melanoma = system: M14 melanoma
HCC-2998 colon = system: HCC-2998 colon
NCI-H522 lung = system: NCI-H522 lung
MALME-3M melanoma = system: MALME-3M melanoma
786-0 renal = system: 786-0 renal
MDA-N = system: MDA-N
TK-10 renal = system: TK-10 renal
BT-549 breast = system: BT-549 breast
LOX IMVI melanoma = system: LOX IMVI melanoma

| Compound | TGI (DU-145 prostate) [µM] | TGI (OVCAR-8 ovarian) [µM] | TGI (M14 melanoma) [µM] | TGI (HCC-2998 colon) [µM] | TGI (NCI-H522 lung) [µM] | TGI (MALME-3M melanoma) [µM] | TGI (786-0 renal) [µM] | TGI (MDA-N) [µM] | TGI (TK-10 renal) [µM] | TGI (BT-549 breast) [µM] | TGI (LOX IMVI melanoma) [µM] |
| --- | --- | --- | --- | --- | --- | --- | --- | --- | --- | --- | --- |
| COc1ccc(N=C2C(=Nc3ccc(OC)cc3)N(c3ccccc3)C(=S)N2N=C=C2Sc3ccccc3N2C)cc1 | > 100 | > 100 | > 100 | > 100 | > 100 | > 100 | > 100 | > 100 | > 100 | > 100 | – |
| Brc1c(C#CCC2CCCCC2)ccc(C#CCC2CCCCC2)c1Br | > 100 | > 100 | > 100 | > 100 | > 100 | > 100 | > 100 | > 100 | > 100 | > 100 | > 100 |
| C#CCOCC12C=CC(O1)C1C(=O)OCC12 (stereo not drawn) | > 100 | > 100 | > 100 | > 100 | > 100 | > 100 | > 100 | > 100 | > 100 | > 100 | > 100 |
| CCOC(=O)CSc1nnc(C(Sc2nc(-c3ccccc3)c(-c3ccccc3)[nH]2)C(C)C)n1-c1ccccc1 (stereo not drawn) | > 100 | > 31.6 | 20.1 | 43.5 | 26.9 | 28.3 | > 31.6 | > 100 | > 31.6 | 52.9 | 19.9 |
| CSCCC(NC(=O)Cc1ccc(C(=O)c2ccccc2)cc1)C(=O)O (stereo not drawn) | > 100 | > 100 | > 100 | > 100 | > 100 | > 100 | > 100 | > 100 | > 100 | > 100 | > 100 |
| Cc1nc(-c2ccc(N=Cc3ccc(N(CCOS(C)(=O)=O)CCOS(C)(=O)=O)cc3C)cc2)cs1 | > 100 | > 100 | > 100 | > 100 | > 100 | > 100 | 47.5 | > 100 | > 100 | > 100 | > 100 |
| CC1OC(OC2C(OC(=O)[C@@H]3CC(C)(C)C[C@H]4C5=CC[C@@H]6[C@@]7(C)C[C@H](O)[C@H](OC8OC(CO)C(O)C(O)C8O)[C@@](C)(CO)[C@@H]7[C@H](O)C[C@@]6(C)[C@]5(C)CC[C@@]34C)OCC(O)C2O)C(O)C(O)C1O (stereo partly drawn) | > 7.5 | > 7.5 | > 7.5 | > 7.5 | > 7.5 | > 7.5 | > 7.5 | > 7.5 | > 7.5 | > 7.5 | > 7.5 |
| CC(C)C1=CC23CCC4C(C)(C(=O)O)CCCC4(C)C2CC1C1C(=O)N(c2ccc(C(=O)O)cc2)C(=O)C13 (stereo not drawn) | > 100 | > 100 | > 100 | > 100 | > 100 | > 100 | > 100 | > 100 | > 100 | > 100 | > 100 |
| CC(C)[C@@H]1ON1C(C)c1ccccc1 (stereo partly drawn) | > 100 | > 100 | > 100 | > 100 | > 100 | > 100 | > 100 | > 100 | > 100 | > 100 | > 100 |
| Fc1ccccc1C1SCc2nc3cc4ccccc4cc3n21 (stereo not drawn) | > 100 | > 100 | > 100 | > 100 | > 100 | > 100 | 51.5 | > 100 | > 100 | > 100 | – |
| COc1ccc(-n2cnc3c(NC(CCSC)C(=O)O)ncnc32)cc1 (stereo not drawn) | > 100 | > 100 | > 100 | > 100 | > 100 | – | > 100 | > 100 | > 100 | > 100 | > 100 |
| COC(=O)c1c(OC(C)=O)ccc2c1c1c(OC(C)=O)c3ccccc3c(OC(C)=O)c1n2Cc1ccccc1 | 45.5 | > 50 | 17.2 | 5.22 | 3.4 | 22.6 | 37.2 | 41.1 | > 50 | 28.8 | – |
| CCOC(=O)c1ccc(C(=O)C(C(C)=O)C(=O)OC(C)(C)C)[nH]1 (stereo not drawn) | > 100 | > 100 | > 100 | > 100 | > 100 | > 100 | > 100 | > 100 | – | > 100 | > 100 |
| O=C(Nc1cccc(F)c1)c1cc2ccc(O)cc2oc1=Nc1ccccc1F | 15.1 | 5.85 | 17.4 | 28.7 | 10.3 | 18.6 | 17.1 | 17.7 | – | 8.61 | 7.15 |
| Cc1ccc(/C=C2\CCCC(CN3CCCCC3)C2=O)cc1 (stereo not drawn) | 23.9 | 6.79 | – | 28.9 | 3.22 | 5.98 | 4.02 | 7.78 | 7.44 | 4.84 | 3.29 |
| CC[C@@H](/C=C\CCC(=O)C[C@H](O)CCC=C(C)C)O[Si](C(C)C)(C(C)C)C(C)C | > 100 | > 100 | > 100 | > 100 | > 100 | – | > 100 | > 100 | > 100 | > 100 | > 100 |
